According to US20190015416A1, “BTK INHIBITORS FOR TREATING NEUROBLASTOMA” (The Chinese University of Hong Kong, priority 2017, published 2019):

Tests used:
[1] = system: NBL-S cells; experiment: MTT proliferation assay; assay type: cell-based, human; settings: 48 hr treatment or transfection, normalized to DMSO
Protocol: (§1) FIGS. 5A-5G: BTK signaling regulates cell proliferation. […] MTT were performed to measure the cell viability, the absorbance of treated cell groups was normalized to that of DMSO treated cells. (FIGS. 5C, 5D) MTT assay of NBL-S or SH-SY5Y cells transfected with BTK (FIG. 5C) or BTK siRNA (FIG. 5D) at 48 hr after transfection. […] (FIG. 5E) NBL-S cells and SH-SY5Y cells were treated with the inhibitors either separately or the combinations as indicated, and the treated cells were collected at different time points for MTT assay. The absorbance of treated cell groups was normalized to that of control cells treated with DMSO.
(§2) Neuroblastoma cells were seeded in 96-well plates at a concentration of 5×10^3 per well. After siRNA transfection or inhibitor treatment for 48 hours, 10 ul MTT ([…]) is added into every well followed by incubation for 4 hours. The absorbance was measured at A570 nm.

[2] = system: SH-SY5Y cells; experiment: MTT proliferation assay; assay type: cell-based, human; settings: 48 hr treatment or transfection, normalized to DMSO
Protocol: as §1, §2

[3] = system: SH-SY5Y tumor xenograft; settings: SH-SY5Y xenograft in nude mice
From the text: SH-SY 5Y cells were inoculated into flanks of nude mice. Animals were randomly divided into four groups when tumor xenograft reached 100 mm^3. […] (FIG. 7B) Quantifications of the tumor xenografts weight. The data are expressed as mean values±S.D. (n=4 in each group). **P<0.01. […] Mean±SD values are presented. **p<0.01; *p<0.05. […] (FIG. 7D) Cell proliferations in tumor xenografts were elucidated by immunohistochemical (IHC) analysis with Ki67 antibody. Scale bar represents 50 μm. (FIG. 7E) Quantification of Ki-67-positive cells within the xenografts. Ki-67-positive cells were quantitated from 5 random fields of each tumor xenograft under the microscope (400×) using Image-Pro PLUS V6.0.0.260 software. The values were normalized to those from vehicle treated mice. The data were presented as mean values±S.D. (n=4). **p<0.01; *p<0.05. Apoptosis markers such as cleaved PARP and cleaved Caspase 3 in xenograft tumors were examined by Western blot. […] The signals densities were analyzed by Image J. The relative signals of cleavage PARP to total PARP, cleaved Caspase 3 to tubulin were normalized to those from vehicle treated mice.
Neuroblastoma xenografts in nude mice were established by injection of SH-SY5Y cells.

[4] = system: SH-SY5Y cells; experiment: Cell cycle distribution by flow cytometry; assay type: cell-based, human; settings: 24 hr, Ibrutinib 2.5 μM, NVP-TAE684 100 nM, Crizotinib 250 nM, control 64.90%

| Structure (SMILES) | cell proliferation (MTT) [1] | cell proliferation (MTT) [2] | proliferation of neuroblastoma cells in vivo (Ki67 immunostaining) ([3]; 14 days treatment) | cell apoptosis in tumor xenograft (cleaved caspase 3 and PARP) ([3]; Western blot) | growth of neuroblastoma xenograft ([3]; intraperitoneal injection, 14 days) | cell portion at G0/G1 phase [4] |
| --- | --- | --- | --- | --- | --- | --- |
| C[C@@H](Oc1cc(-c2cnn(C3CCNCC3)c2)cnc1N)c1c(Cl)ccc(F)c1Cl [Crizotinib] | can be inhibited | insensitive | inhibited proliferation | potentiated cell apoptosis | only moderately inhibited |  |
| C=CC(=O)N1CCC[C@@H](n2nc(-c3ccc(Oc4ccccc4)cc3)c3c(N)ncnc32)C1 [Ibrutinib, 1-((R)-3-(4-amino-3-(4-phenoxyphenyl)-1H-pyrazolo[3,4-d]pyrimidin-1-yl)pi-peridin-1-yl)prop-2-en-1-one] |  |  |  |  |  | 73.8% |
| COc1cc(N2CCC(N3CCN(C)CC3)CC2)ccc1Nc1ncc(Cl)c(Nc2ccccc2S(=O)(=O)C(C)C)n1 [NVP-TAE684] | can be inhibited | can be inhibited |  |  |  |  |
